This is an account of results in ChEMBL document CHEMBL1144945, “Development of progesterone receptor antagonists from 1,2-dihydrochromeno[3,4-f]quinoline agonist pharmacophore” (Bioorg Med Chem Lett, 2003).

Active and inactive are the calls of the source.

Assay [1] addresses T1, Estrogen receptor (Homo sapiens) (UniProt Q92731+P03372). Nature of the assay: Antagonist efficacy for estrogen (hER) receptor; Not active. Type of assay: functional.
Assay [2] deals with T2, Mineralocorticoid receptor (Homo sapiens, UniProt P08235).
T2 sequence (P08235 whole entry): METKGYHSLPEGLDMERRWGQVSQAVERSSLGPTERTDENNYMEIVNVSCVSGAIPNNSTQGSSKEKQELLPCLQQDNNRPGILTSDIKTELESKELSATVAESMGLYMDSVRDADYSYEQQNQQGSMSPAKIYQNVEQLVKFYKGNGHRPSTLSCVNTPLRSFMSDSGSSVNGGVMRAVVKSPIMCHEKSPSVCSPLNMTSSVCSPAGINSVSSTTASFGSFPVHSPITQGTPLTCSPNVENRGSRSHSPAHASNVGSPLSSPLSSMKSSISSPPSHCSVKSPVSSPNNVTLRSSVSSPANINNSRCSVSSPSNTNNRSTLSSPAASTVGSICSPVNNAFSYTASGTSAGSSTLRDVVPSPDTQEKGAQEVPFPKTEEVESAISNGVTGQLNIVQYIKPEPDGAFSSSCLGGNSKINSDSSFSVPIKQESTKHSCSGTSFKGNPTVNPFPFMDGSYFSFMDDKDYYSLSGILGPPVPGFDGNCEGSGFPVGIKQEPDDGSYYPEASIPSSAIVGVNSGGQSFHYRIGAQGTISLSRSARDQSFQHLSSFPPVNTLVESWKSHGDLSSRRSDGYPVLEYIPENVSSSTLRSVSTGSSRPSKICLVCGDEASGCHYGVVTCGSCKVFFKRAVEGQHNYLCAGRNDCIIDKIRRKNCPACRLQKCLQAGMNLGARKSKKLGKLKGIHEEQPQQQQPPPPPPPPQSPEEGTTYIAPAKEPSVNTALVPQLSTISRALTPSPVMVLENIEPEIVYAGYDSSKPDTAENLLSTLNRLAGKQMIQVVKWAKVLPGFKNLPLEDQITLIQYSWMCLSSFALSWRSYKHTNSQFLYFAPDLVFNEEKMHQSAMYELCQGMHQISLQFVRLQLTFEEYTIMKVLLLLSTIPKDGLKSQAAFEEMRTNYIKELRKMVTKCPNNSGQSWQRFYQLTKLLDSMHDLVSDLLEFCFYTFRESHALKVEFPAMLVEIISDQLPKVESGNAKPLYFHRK
Kind of assay: Inhibition of antagonist activity towards mineralocorticoid receptor (hMR); Not active. Format: functional.

Assay [3] has as its target T3, Mineralocorticoid receptor (Homo sapiens) (UniProt P08235).
T3 sequence (whole entry): T2 sequence (P08235 whole entry)
Nature of the assay: Antagonist efficacy for mineralocorticoid receptor (hMR); Not active. Format: functional.

In assay [4] the target is T1, Estrogen receptor (Homo sapiens). Nature of the assay: Antagonist efficacy for Estrogen receptor; Not active. Type of assay: functional.
Assay [5] concerns the target T4, Progesterone receptor (Homo sapiens) (UniProt P06401).
T4 sequence (whole entry): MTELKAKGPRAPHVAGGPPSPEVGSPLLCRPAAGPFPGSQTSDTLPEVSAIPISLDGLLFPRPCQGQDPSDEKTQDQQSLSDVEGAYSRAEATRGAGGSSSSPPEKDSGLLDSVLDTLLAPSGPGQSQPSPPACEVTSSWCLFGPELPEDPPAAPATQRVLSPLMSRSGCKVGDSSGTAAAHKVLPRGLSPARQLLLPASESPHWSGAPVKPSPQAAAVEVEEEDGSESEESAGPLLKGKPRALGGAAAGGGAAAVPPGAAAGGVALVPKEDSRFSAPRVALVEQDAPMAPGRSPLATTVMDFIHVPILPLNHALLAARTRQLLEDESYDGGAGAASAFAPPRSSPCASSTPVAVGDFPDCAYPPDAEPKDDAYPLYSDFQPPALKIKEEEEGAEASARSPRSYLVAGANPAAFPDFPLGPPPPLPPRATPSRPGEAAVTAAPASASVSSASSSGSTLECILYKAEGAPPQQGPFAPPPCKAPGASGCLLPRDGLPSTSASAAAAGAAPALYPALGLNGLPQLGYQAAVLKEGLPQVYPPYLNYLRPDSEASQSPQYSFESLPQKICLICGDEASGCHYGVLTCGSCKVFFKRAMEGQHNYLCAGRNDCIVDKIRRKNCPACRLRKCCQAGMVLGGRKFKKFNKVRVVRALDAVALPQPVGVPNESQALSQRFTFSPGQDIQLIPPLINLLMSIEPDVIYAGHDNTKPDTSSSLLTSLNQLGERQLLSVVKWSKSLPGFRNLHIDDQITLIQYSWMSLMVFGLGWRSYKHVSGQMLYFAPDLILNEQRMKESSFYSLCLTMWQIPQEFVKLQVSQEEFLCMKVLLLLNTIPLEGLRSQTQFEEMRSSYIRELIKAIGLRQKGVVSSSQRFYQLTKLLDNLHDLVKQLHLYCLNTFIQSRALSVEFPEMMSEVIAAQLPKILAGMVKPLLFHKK
Kind of assay: Agonist efficacy for human progesterone receptor in T47D human breast cancer cell; not active (<20% efficacy and/or >10 mM potency). Type of assay: functional, cell-based.

Assay [6] concerns the target T5, Progesterone receptor (Homo sapiens, UniProt P06401).
T5 sequence (P06401 whole entry): T4 sequence (whole entry)
Kind of assay: Effective concentration for human progesterone receptor in T47D human breast cancer cell; not active (<20% efficacy and/or >10 mM potency). The conditions noted are these: cancer cell lines.

Assay [7] addresses T5, Progesterone receptor.
Description: Antagonistic activity at human progesterone receptor in CV-1 cells.
Assay [8] has as its target T5, Progesterone receptor. This is another data set of the same source.
Description: Binding affinity at human progesterone receptor.
The target in assay [9] is T5, Progesterone receptor. This is another data set of the same source.
Description: Inhibition of human progesterone receptor activation in T47D human breast cancer cell.

A word on the IC50: it is the concentration at which inhibition is half-maximal. As usually defined, the EC50 is the concentration needed to bring the measured effect to its halfway point. Lower therefore signals higher potency in that assay. What is called Ki is a dissociation constant, usually derived from enzyme kinetics or from competition with a known ligand. Low readings indicate a stronger hold on the target, high ones a looser hold on the target.

In the case of `CC1=CC(C)(C)Nc2ccc3c(c21)COc1c(F)cc(Cl)cc1-3`, the Efficacy entry in [1] and in [3] was “inactive” each time. The IC50 entry in assay [2] is listed as “Not Active”.

Consider `CC1CC(C)(C)Nc2ccc3c(c21)COc1ccc([N+](=O)[O-])cc1-3` (stereo not given), for which the Efficacy entry in assay [4] and in [5] was “inactive” each time. In addition, the figures for the half-inhibitory concentration (IC50) (in assay [2] (read-out: IC50); at Progesterone receptor [9]) were 2870 nM (not active) and 104 nM, respectively. In addition, the Efficacy in [3] is 58%. In addition, the concentration giving a half-maximal response (EC50) entry is “Not Active” on Progesterone receptor [6] and 52 nM on Progesterone receptor [7]. On Progesterone receptor [8], this compound registered an inhibition constant Ki of 144 nM.

As for `CC1=CC(C)(C)Nc2ccc3c(c21)COc1c(F)cc(F)cc1-3`, the Efficacy result in assay [1] and in [3] was “inactive” each time. Further, the IC50 result in assay [2] is reported as “Not Active”.

Regarding `CC1=CC(C)(C)Nc2ccc3c(c21)COc1c(F)cc(Br)cc1-3`, the Efficacy entry in [4], in [3] and in assay [5] was “inactive” throughout. The IC50 result in [2] was “Not Active”; against Progesterone receptor [9], 461 nM. The results for the EC50 result at Progesterone receptor [6] and on Progesterone receptor [7] were “Not Active” and 57 nM, respectively. The same compound yielded a Ki at Progesterone receptor [8] of 12.4 nM.

In the case of `CC1CC(C)(C)Nc2ccc3c(c21)COc1c(F)cc(F)cc1-3` (stereo not given), the Efficacy entry in assay [4], in [3] and in [5] was “inactive” each time. Further, the concentration for half-maximal inhibition (IC50) entry in [2] is “Not Active”; on Progesterone receptor [9], 217 nM. Besides, the values for the 50% effective concentration (EC50) result at Progesterone receptor [6] and at Progesterone receptor [7] were “Not Active” and 40 nM, respectively. Moreover, on Progesterone receptor [8], the inhibition constant (Ki) turned out to be 45 nM.
